Measured values reported in US12187722B2, “Small molecule inhibitors of TEAD transcription factors” (The General Hospital Corporation, priority 2019, dated 2025).
Values joined by “and” are separate entries in the source; they are usually repeats but may differ in a detail not shown here. Equal values may be shown once.

Target: TEAD2 (Homo sapiens (Human), UniProt Q15562)
Test: In vitro palmitoylation (TEAD2 autopalmitoylation, streptavidin blot)
Format: biochemical
Details: compound at 10 μM; Table 2
Procedure, shortened: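 Autopalmitoylation read by streptavidin-HRP Western blot after CuSO4/TBTA/TCEP click with 100 μM biotin-azide, 1 h RT, with His-HRP probed separately. Before that, TEAD2 protein (GST or His6, 500 ng) given compound for 15 min then 1 μM alkyne palmitoyl-CoA for 30 min; percent inhibition versus DMSO-treated samples.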

Chain of TEAD2 (Q15562 whole entry): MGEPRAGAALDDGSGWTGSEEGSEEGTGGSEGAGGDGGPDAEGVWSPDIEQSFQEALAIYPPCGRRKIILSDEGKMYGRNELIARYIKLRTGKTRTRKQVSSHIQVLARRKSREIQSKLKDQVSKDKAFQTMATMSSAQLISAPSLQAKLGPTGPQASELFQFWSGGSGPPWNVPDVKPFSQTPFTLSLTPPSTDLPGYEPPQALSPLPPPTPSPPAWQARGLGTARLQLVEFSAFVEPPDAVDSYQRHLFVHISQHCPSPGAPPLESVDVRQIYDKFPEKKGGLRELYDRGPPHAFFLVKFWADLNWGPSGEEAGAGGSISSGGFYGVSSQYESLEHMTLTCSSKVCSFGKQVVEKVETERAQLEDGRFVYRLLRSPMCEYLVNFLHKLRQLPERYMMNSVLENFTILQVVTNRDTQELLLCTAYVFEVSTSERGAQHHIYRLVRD

| SMILES | inhibition at 10 µM [%] | % of inhibition of TEAD2 palmitoylation at 10 μM |
| --- | --- | --- |
| O=C(O)c1cccc(Nc2cccc(Nc3ccc(C45CC6CC(CC(C6)C4)C5)cc3Cl)c2)n1 [Compound 150] | 100 | – |
| O=C(O)c1cncc(Nc2cc(C(F)(F)F)cc3[nH]c4ccc(C56CC7CC(CC(C7)C5)C6)cc4c23)c1 [Compound 151] | 101 | – |
| CN(c1ccc(C23CC4CC(CC(C4)C2)C3)cc1)c1cc(N(C)c2ncccc2C(=O)O)cc(C(F)(F)F)c1 [Compound 152] | 102 | – |
| O=C(O)c1cncc(Nc2cc(Nc3ccc(C45CC6CC(CC(C6)C4)C5)cc3Cl)cc(C(F)(F)F)c2)c1 [Compound 153] | 100 | – |
| O=C(O)c1cccc(Nc2cc(C(F)(F)F)cc3[nH]c4ccc(C56CC7CC(CC(C7)C5)C6)cc4c23)n1 [Compound 154] | 58 | 43% |
| O=C(Nc1ccc(Nc2ccccc2C(=O)O)cc1)c1ccc(C23CC4CC(CC(C4)C2)C3)cc1 [Compound 157] | 80 | – |
| CCCCN(CCCC)C(=O)c1ccc(Nc2ccccc2C(=O)O)cc1 [Compound 159] | 41 | – |
| O=C(NC12CC3CC(CC(C3)C1)C2)c1ccc(Nc2ccccc2C(=O)O)cc1 [Compound 167] | 43 | – |
| CCCCN(CCCC)Cc1ccc(Nc2ccc(Nc3ccccc3C(=O)O)cc2)cc1 [Compound 169] | 42 | – |
| CCCCN(CCCC)c1ccc(NC(=O)c2ccc(Nc3ccccc3C(=O)O)cc2)cc1 [Compound 170] | 62 | – |
| Cn1c(-c2ccc(Nc3ccc(C45CC6CC(CC(C6)C4)C5)cc3)cc2)nc2cccc(C(=O)O)c21 [Compound 173] | 51 | – |
| CCCCN(c1ccccc1)c1ccc(Nc2ccc(Nc3ccccc3C(=O)O)cc2)cc1 [Compound 174] | 85 | – |
| CCCCN(CCCC)C(=O)c1ccc(Nc2ccc(Nc3ccccc3C(=O)O)cc2)cc1 [Compound 175] | 70 | – |
| O=C(NC12CC3CC(CC(C3)C1)C2)c1ccc(Nc2ccc(Nc3ccccc3C(=O)O)cc2)cc1 [Compound 176] | – | 89% |
| CC12CC3CC(C)(C1)CC(c1ccc(Nc4ccc(Nc5ccccc5C(=O)O)cc4)cc1)(C3)C2 [Compound 177] | 56 | – |
| O=C(Nc1ccc(Nc2ncccc2C(=O)O)cc1)Nc1ccc(C23CC4CC(CC(C4)C2)C3)cc1 [Compound 180] | 81 | – |

| SMILES | inhibition at 10 µM [%] | % of inhibition of TEAD2 palmitoylation at 10 μM |
| --- | --- | --- |
| O=C(CNc1ccc(Nc2ncccc2C(=O)O)cc1)Nc1ccc(C23CC4CC(CC(C4)C2)C3)cc1 [Compound 181] | 49 | 41% |
| O=C(Nc1ccc(Nc2cccc(C(=O)O)n2)cc1)Nc1ccc(C23CC4CC(CC(C4)C2)C3)cc1 [Compound 182] | 54 | – |
| O=C(Nc1ccc(C23CC4CC(CC(C4)C2)C3)cc1Cl)c1ccc(Nc2ncccc2C(=O)O)cc1 [Compound 183] | 100 | 96% |
| O=C(Cc1ccc(Nc2ncccc2C(=O)O)cc1)Nc1ccc(C23CC4CC(CC(C4)C2)C3)cc1 [Compound 184] | 71 | – |
| O=C(O)c1cccc(Nc2ccc(C(=O)Nc3ccc(C45CC6CC(CC(C6)C4)C5)cc3)cc2)c1 [Compound 185] | – | 66% and 91% |
| CCCCN(c1ccccc1)c1ccc(N(C)c2ccc(N(C)c3ccccc3C(=O)O)cc2)cc1 [Compound 187] | 57 | – |
| O=C(O)c1cccnc1Nc1ccc(S(=O)(=O)Nc2ccc(C34CC5CC(CC(C5)C3)C4)cc2)cc1 [Compound 188] | 101 | – |
| O=C(Nc1ccc(Nc2ccccc2C(=O)O)cc1)Nc1ccc(C23CC4CC(CC(C4)C2)C3)cc1 [Compound 189] | 34 | – |
| O=C(O)c1ccccc1Nc1ccc(S(=O)(=O)Nc2ccc(C34CC5CC(CC(C5)C3)C4)cc2)cc1 [Compound 190] | 85 | – |
| O=C(O)c1cccc(Nc2ccc(S(=O)(=O)Nc3ccc(C45CC6CC(CC(C6)C4)C5)cc3)cc2)n1 [Compound 194] | 20 | – |
| CCCCN(c1ccccc1)c1ccc(NC(=O)c2ccc(Nc3ccccc3C(=O)O)cc2)cc1 [Compound 195] | 0 | – |
| O=C(Nc1ccccc1C(=O)O)c1ccc(Nc2ccc(C34CC5CC(CC(C5)C3)C4)cc2)cc1 [Compound 197] | 100 | – |
| O=C(O)c1cccc(NC(=O)c2ccc(Nc3ccc(C45CC6CC(CC(C6)C4)C5)cc3)cc2)c1 [Compound 198] | 99 | – |
| Cn1c(-c2ccc(Nc3ccc(C45CC6CC(CC(C6)C4)C5)cc3)cc2)nc2c(C(=O)O)cccc21 [Compound 199] | 6 | – |
| CC12CC3CC(C)(C1)CC(c1ccc(Nc4ccc(Nc5cccc(C(=O)O)n5)cc4)cc1)(C3)C2 [Compound 201] | 43 | – |
| CCCCN(c1ccccc1)c1ccc(Nc2ccc(Nc3cccc(C(=O)O)n3)cc2)cc1 [Compound 202] | 49 | – |

Second part, the compound after the results:

| inhibition at 10 µM [%] | % of inhibition of TEAD2 palmitoylation at 10 μM | SMILES |
| --- | --- | --- |
| 40 | – | CN(C(=O)c1ccc(N(C)c2ccccc2C(=O)O)cc1)c1ccc(C23CC4CC(CC(C4)C2)C3)cc1 [Compound 149] |
| 99 | – | CN(c1ccc(Oc2ccc(C34CC5CC(CC(C5)C3)C4)cc2)cc1)c1ccccc1C(=O)O [Compound 155] |
| 92 | – | CN(c1ccc(C23CC4CC(CC(C4)C2)C3)cc1)c1ccc(N(C)c2ncccc2C(=O)O)cc1C(F)(F)F [Compound 156] |
| 100 | – | CN(c1ccc(N(C)c2ccc(C34CC5CC(CC(C5)C3)C4)cc2)c(C(F)(F)F)c1)c1ccccc1C(=O)O [Compound 158] |
| 84 | – | CN(c1ccc(C23CC4CC(CC(C4)C2)C3)cc1)c1ccc(N(C)c2ccccc2C(=O)O)cn1 [Compound 160] |
| 85 | – | CCN(c1ccc(N(CC)c2ccccc2C(=O)O)cc1)c1ccc(C23CC4CC(CC(C4)C2)C3)cc1 [Compound 163] |
| 20 | – | CC(=O)N(c1ccc(N(C(C)=O)c2ccccc2C(=O)O)cc1)c1ccc(C23CC4CC(CC(C4)C2)C3)cc1 [Compound 164] |
| – | 85% | CN(c1ccc(Nc2ccc(C34CC5CC(CC(C5)C3)C4)cc2)cc1)c1ccccc1C(=O)O [Compound 165] |
| 98 | – | O=C(O)c1ccccc1Nc1ccc(Oc2ccc(C34CC5CC(CC(C5)C3)C4)cc2Cl)cc1 [Compound 166] |
| 75 | – | CCN(c1ccc(N(C)c2ccc(C34CC5CC(CC(C5)C3)C4)cc2)cc1)c1ccccc1C(=O)O [Compound 171] |
| 100 | – | CN(c1ccc(Nc2ccccc2C(=O)O)cc1)c1ccc(C23CC4CC(CC(C4)C2)C3)cc1 [Compound 172] |
| 76 | – | O=C(O)c1ccccc1Nc1ccc(N(c2ccc(C34CC5CC(CC(C5)C3)C4)cc2)C(F)(F)F)cc1 [Compound 186] |
| 85 | – | CN(c1ccc(C#Cc2ccc(C34CC5CC(CC(C5)C3)C4)cc2)cc1)c1ccccc1C(=O)O [Compound 191] |
| 99 | – | CN(C(=O)c1ccc(Nc2ccccc2C(=O)O)cc1)c1ccc(C23CC4CC(CC(C4)C2)C3)cc1 [Compound 192] |
| 86 | – | CN(c1ccc(Nc2cccc(C(=O)O)n2)cc1)c1ccc(C23CC4CC(CC(C4)C2)C3)cc1 [Compound 193] |
| 100 | – | CN(c1ccc(Oc2ccc(C34CC5CC(CC(C5)C3)C4)cc2)cc1)c1ncccc1C(=O)O [Compound 196] |
| 32 | – | CN(c1ccc(N2CC(Oc3ccc(C45CC6CC(CC(C6)C4)C5)cc3)C2)cc1)c1ccccc1C(=O)O [Compound 200] |
